Reference: patent publication US20170052170A1, “NOVEL CELL LINES AND METHODS” (priority 2009, published 2017)

Experiments:
[1] = molecular target: T1, umami taste receptor (T1R1/T1R3) (Homo sapiens, UniProt Q7RTX0+Q7RTX1, C757R); experiment: Umami cell-based calcium flux assay, HEK293T cells expressing T1R1, T1R3 and mouse Gα15; conditions: FIG. 6; high density, coated plates, low glucose media, serum deprivation
T1 construct: expressed in transfected cells; host or cells: HEK293T (ATCC CRL-11268)
T1 sequence (Q7RTX1 21-841): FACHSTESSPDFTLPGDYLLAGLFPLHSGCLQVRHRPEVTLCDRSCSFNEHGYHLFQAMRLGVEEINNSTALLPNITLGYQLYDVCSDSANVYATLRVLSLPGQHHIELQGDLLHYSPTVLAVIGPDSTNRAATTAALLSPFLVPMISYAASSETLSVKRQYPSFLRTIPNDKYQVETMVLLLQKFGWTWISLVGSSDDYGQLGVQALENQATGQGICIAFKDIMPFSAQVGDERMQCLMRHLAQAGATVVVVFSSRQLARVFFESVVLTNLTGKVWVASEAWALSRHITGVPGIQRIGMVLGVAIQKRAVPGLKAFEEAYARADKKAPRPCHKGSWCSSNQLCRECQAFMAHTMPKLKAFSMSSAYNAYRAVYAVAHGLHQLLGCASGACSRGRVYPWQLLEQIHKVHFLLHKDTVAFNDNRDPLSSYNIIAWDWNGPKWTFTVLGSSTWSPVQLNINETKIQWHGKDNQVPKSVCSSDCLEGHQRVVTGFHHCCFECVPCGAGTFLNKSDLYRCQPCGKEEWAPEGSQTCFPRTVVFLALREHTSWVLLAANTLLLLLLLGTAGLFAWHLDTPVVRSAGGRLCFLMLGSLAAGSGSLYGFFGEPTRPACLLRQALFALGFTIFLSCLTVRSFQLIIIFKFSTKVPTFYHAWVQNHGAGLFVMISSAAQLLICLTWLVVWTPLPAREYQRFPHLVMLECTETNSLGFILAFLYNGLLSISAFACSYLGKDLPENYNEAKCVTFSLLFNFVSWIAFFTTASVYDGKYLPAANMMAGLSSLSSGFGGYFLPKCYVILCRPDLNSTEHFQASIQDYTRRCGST
T1 sequence (Q7RTX0 21-852 C757R): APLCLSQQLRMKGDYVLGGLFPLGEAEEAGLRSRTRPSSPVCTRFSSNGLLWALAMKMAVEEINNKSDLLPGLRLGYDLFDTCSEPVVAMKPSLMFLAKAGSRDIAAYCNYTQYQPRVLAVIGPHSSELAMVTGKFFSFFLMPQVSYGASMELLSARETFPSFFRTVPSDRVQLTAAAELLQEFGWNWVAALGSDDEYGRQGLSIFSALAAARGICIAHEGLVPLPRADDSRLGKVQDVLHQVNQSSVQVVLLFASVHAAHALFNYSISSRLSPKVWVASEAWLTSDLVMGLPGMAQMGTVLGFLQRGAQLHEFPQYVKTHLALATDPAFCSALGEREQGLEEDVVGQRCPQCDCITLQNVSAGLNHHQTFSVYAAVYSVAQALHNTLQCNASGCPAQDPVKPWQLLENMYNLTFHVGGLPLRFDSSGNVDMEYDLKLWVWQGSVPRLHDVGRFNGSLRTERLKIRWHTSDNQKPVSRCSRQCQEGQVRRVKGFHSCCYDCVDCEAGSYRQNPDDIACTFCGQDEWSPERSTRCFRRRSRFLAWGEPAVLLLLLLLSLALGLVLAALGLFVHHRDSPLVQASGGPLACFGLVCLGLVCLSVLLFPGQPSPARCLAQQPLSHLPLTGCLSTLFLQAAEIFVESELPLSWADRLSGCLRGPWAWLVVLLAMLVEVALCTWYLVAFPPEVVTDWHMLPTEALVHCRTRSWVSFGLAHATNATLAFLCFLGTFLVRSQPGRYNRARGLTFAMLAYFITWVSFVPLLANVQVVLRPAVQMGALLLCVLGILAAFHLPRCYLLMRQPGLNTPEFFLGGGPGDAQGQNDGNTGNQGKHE

[2] = molecular target: T2, sweet taste receptor (T1R2/T1R3) (Homo sapiens, UniProt Q7RTX0+Q8TE23, C757R/I191V/I486V/R317G); experiment: Sweet cell-based calcium flux assay, HEK293T cells expressing T1R2, T1R3 and mouse Gα15
T2 construct: expressed in transfected cells; host or cells: HEK293T (ATCC CRL-11268)
T2 sequence (Q8TE23 20-839 I191V/R317G/I486V): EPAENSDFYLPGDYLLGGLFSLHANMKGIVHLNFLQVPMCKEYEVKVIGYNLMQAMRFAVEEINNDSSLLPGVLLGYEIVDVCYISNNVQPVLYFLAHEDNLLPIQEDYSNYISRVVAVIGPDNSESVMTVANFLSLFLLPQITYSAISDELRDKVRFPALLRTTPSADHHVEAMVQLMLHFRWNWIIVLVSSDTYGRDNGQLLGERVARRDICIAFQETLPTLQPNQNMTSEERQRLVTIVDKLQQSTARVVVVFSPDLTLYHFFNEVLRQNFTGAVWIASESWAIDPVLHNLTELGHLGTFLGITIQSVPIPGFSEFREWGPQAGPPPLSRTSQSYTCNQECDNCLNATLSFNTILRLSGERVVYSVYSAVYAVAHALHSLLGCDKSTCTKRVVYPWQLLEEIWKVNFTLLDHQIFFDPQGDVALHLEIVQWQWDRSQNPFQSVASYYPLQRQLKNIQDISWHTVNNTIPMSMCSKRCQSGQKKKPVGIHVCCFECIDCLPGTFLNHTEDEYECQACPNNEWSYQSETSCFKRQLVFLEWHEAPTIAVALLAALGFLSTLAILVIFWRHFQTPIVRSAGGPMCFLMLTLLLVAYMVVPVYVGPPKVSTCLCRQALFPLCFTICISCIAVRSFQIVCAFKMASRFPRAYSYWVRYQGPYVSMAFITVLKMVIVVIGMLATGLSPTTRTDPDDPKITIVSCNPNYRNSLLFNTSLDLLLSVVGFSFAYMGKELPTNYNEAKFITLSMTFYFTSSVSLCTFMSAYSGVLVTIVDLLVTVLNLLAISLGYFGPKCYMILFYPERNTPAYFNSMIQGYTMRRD
T2 sequence (Q7RTX0 21-852 C757R): T1 sequence (Q7RTX0 21-852 C757R)
Excerpt: Plates are then loaded on a high throughput plate reader (Hamamatsu FDSS). […] Calcium flux is detected for 90 seconds.

For `O=C(CO)[C@@H](O)[C@H](O)[C@H](O)CO` [fructose], the “response of cells grown in the "Final" growth conditions” value [1] was “not”, the EC50 [2] was < 4.3 mM and the “response of cells grown in the "Final" growth conditions” value ([2]; FIG. 20, high density, coated plates, low glucose media, serum deprivation) was “respond robustly”.
